# Counter-ions that a name gives are not always drawn. Like-named read-outs stand apart in the source and are kept apart here.
# Test system: Xenopus embryos
# Settings: for Type of edema Cerebral: + = cerebral edema extending dorso-anteriorly and displacing the eyes; for Type of edema Ventral: ‡ = edemas also detected in the gut; for Type of edema Periocular: * = causing bulging eyes, # = bilateral, causing narrow-set eyes
# Protocol: 10-μl aliquots of the chemicals were transferred from the mother plates with a liquid handling robot (Aquarius, Tecan) into 96-well tissue culture plates to generate diluted stock plates (2 mM in DMSO; 50 μl final volume). […] Once embryos reached stage 31 (37 hpf), 10-μl aliquots of the diluted chemicals were added to the wells. […] Negative control wells contained embryos in screening medium and 0.1×MMR only. Embryos were treated with the chemicals in a humidified incubator at 23° C. over a timeframe of 4 days. Embryos were manually scored for the presence of edema or other morphological phenotypes using a teaching dissecting microscope (SV6; Carl Zeiss). Two investigators performed separately the scoring daily at stages 39 (56 hpf), 41 (76 hpf), 45 (98 hpf), and 47 (120 hpf). Dead embryos were removed and 100 μl of water was added daily to each well to compensate for fluid evaporation. […] For imaging at the end of the experiments. Xenopus tadpoles were anesthetized with 0.05% tricaine (Sigma #A5040) in 0.1×MMR. Images were captured using a stereomicroscope (SteREO Lumar V12; Carl Zeiss) equipped with a digital camera (AxioCam Color; Carl Zeiss).
# Xenopus late tailbud embryos at stage 31 (37 hpf) were selected for compound treatment. […] Embryos were arrayed into 48-well dishes (five per well) and treated with test compounds at a concentration of 20 μM in the presence of 1% DMSO. […] All 48-well dishes also contained replicates of negative controls (1% DMSO). Embryos were monitored daily over a period of four days for edema formation. In addition, drug-induced lethality and other externally visible phenotypes were scored. On average, 320 compounds were screened per week.
# [1] = compounds causing edema, 20 μM, 1% DMSO, treatment from stage 31, scored to stage 47
# [2] = embryonic stage, — = no stage of lethality given
# [3] = onset of edema, 20 μM, 1% DMSO, treatment from stage 31, Nieuwkoop & Faber stage
# [4] = compounds causing lethality, 20 μM, 1% DMSO, treatment from stage 31, Nieuwkoop & Faber stage
# [5] = onset of pigmentation defects, 20 μM, 1% DMSO
# [6] = compounds causing cytotoxicity, 20 μM, 1% DMSO, treatment from stage 31, Nieuwkoop & Faber stage
compound,measurement,setting,value
CC1=C(/C=C/C(C)=C/C=C/C(C)=C\C(=O)O)C(C)(C)CCC1 [13-cis-retinoic acid],Lethality (NF),[1],46 NF
same,Type of edema Pronephric,embryonic stage,45 embryonic stages according to Nieuwkoop and Faber (NF)
same,Type of edema Cerebral,embryonic stage,45+ embryonic stages according to Nieuwkoop and Faber (NF)
same,Lethality,[2],46 embryonic stages according to Nieuwkoop and Faber (NF)
same,Type of edema Ventral,embryonic stage,41/42
same,Onset (NF),[3],41/42
"O.c1cnc2c(c1)ccc1cccnc12 [1,10-Phenanthroline monohydrate]",Lethality (NF),[1],46 NF
same,Onset (NF),[3],39/40
"CC[C@@H]1Cc2cc(O)ccc2C2=C1c1ccc(O)cc1C[C@H]2CC [(5R, 11R)-5,11-Diethyl-5,6,11,12-tetrahydro-2,8-chrysenediol]",Lethality (NF),[4],41 NF
R(-)-Propylnorapomorphine hydrochloride,Onset (NF),[5],33/34
O=C(O)c1cc([N+](=O)[O-])ccc1NCCCc1ccccc1 [5-Nitro-2-(3-phenylpropylamino)benzoic acid],Lethality (NF),[6],32 NF
CCCCCCCCCCCCCCCCCC(=O)OC(CC(=O)O)C[N+](C)(C)C.[Cl-] (racemic) [DL-Stearoylcarnitine chloride],Lethality (NF),[4],41 NF
Cc1nc2sccn2c(=O)c1CCN1CCC(=C(c2ccc(F)cc2)c2ccc(F)cc2)CC1 [Ritanserin],Type of edema Pronephric,embryonic stage,45 embryonic stages according to Nieuwkoop and Faber (NF)
same,Type of edema Periocular,embryonic stage,41/42
same,Type of edema Ventral,embryonic stage,41/42
same,Onset (NF),[3],41/42
"COC1=C(OC)C(=O)c2ccccc2C1=O [2,3-Dimethoxy-1,4-naphthoquinone]",Lethality (NF),"compounds causing other phenotypic defects, 20 μM, scored to stage 47",42 NF
"CCn1cc(C(=O)O)c(=O)c2ccc(Cc3ccccc3)nc21 [Amfonelic acid, 7-Benzyl-1-ethyl-1,4-dihydro-4-oxo-1,8-naphthyridine-3-carboxylic acid]",Onset (NF),[5],33/34
CCCCCCCCCCCCCCCC(=O)NCC(COP(=O)([O-])OCC[N+](C)(C)C)OCC (racemic) [rac-2-Ethoxy-3-hexadecanamido-1-propylphosphocholine],Lethality (NF),[6],32 NF
"Cc1c(CC(C)(C)C(=O)O)n(Cc2ccc(Cl)cc2)c2ccc(F)cc12 [L-655,240, 3-[1-(4-Chlorobenzyl)-5-fluoro-3-methyl-indol-2-yl]-2,2-dirriethyl propanoic acid]",Lethality (NF),[6],32 NF
"Nc1nc2ccc(Cl)cc2c2nc(-c3ccco3)nn12 [CGS-15943, 9-Chloro-2-(2-furyl)[1,2,4]triazolo[1,5-c]quinazolin-5-amine]",Lethality (NF),"Xenopus laevis, in vivo",46 NF
same,Onset (NF),in vivo,41/42
CCCCCCCCCCCCCCCC(=O)OC(CC(=O)O)C[N+](C)(C)C.[Cl-] (racemic) [Palmitoyl-DL-Carnitine chloride],Lethality (NF),[6],32 NF
"CN1CCc2cccc3c2[C@H]1Cc1ccc(O)c(O)c1-3 [Apomorphine hydrochloride hemihydrate, 10,11-Dihydroxyaporphine hydrochloride hemihydrate]",Onset (NF),[5],33/34
"O.c1cnc2c(c1)ccc1cccnc12 [1,10-Phenenthroline monohydrate]",Type of edema Pericordial,embryonic stage,39/40
same,Lethality,[2],46 embryonic stages according to Nieuwkoop and Faber (NF)
same,Type of edema Ventral,embryonic stage,41/42
"Nc1nc2ccc(OC(F)(F)F)cc2s1 [Riluzole, 2-Amino-6-(trifluoromethoxy)-benzothiazole]",Type of edema Pronephric,embryonic stage,45 embryonic stages according to Nieuwkoop and Faber (NF)
same,Type of edema Periocular,embryonic stage,45 embryonic stages according to Nieuwkoop and Faber (NF)
same,Type of edema Ventral,embryonic stage,45 embryonic stages according to Nieuwkoop and Faber (NF)
CN1CCC[C@@H]1CCO[C@](C)(c1ccccc1)c1ccc(Cl)cc1 [Clemastine fumarate],Type of edema Pericordial,embryonic stage,46 embryonic stages according to Nieuwkoop and Faber (NF)
same,Type of edema Periocular,embryonic stage,46 embryonic stages according to Nieuwkoop and Faber (NF)
same,Type of edema Ventral,embryonic stage,45 embryonic stages according to Nieuwkoop and Faber (NF)
C=C(C)[C@H]1Cc2c(ccc3c2O[C@@H]2COc4cc(OC)c(OC)cc4[C@@H]2C3=O)O1 [Rotenone],Lethality (NF),[6],32 NF
"CC(C)(C)c1cc(C=C(C#N)C(N)=S)cc(C(C)(C)C)c1O [Tyrphostin AG 879, alpha-cyano-(3,5-di-t-butyl-4-hydroxy)thiocinnamide]",Lethality (NF),[6],32 NF
"COCCOC(=O)C1=C(C)NC(C)=C(C(=O)OC(C)C)C1c1cccc([N+](=O)[O-])c1 (stereo not shown) [Nimodipine, 1,4-Dihydro-2,6-dimethyl-4-(3-nitrophenyl)-3,5-pyridinecarboxylic acid 2-methoxyethyl 1-methylethyl ester]",Lethality,"Xenopus laevis, in vivo",41/42
same,Lethality (NF),"Xenopus laevis, in vivo",41/42
same,Type of edema Pericordial,embryonic stage,41/42
same,Onset (NF),[3],41/42
"Cc1ccc(Cl)c(Nc2ccccc2C(=O)O)c1Cl.[Na] [Meclofenamic acid sodium, 2-([2,6-Dichloro-3-methylphenyl]amino)benzoic acid sodium]",Lethality (NF),[1],41/42
same,Type of edema Pericordial,embryonic stage,35/36
same,Lethality,[2],41/42
same,Onset (NF),[3],35/36
CC1(C)CCC2=C(O1)c1ccccc1C(=O)C2=O [beta-Lapachone],Lethality (NF),[6],32 NF
C[C@H](NC(=O)Cc1cc(F)cc(F)c1)C(=O)N[C@H]1N=C(c2ccccc2)c2ccccc2N(C)C1=O [compound E],edema or other phenotype in compound-treated Xenopus embryos/tadpoles (in words),"20 μM, 1% DMSO, treatment from stage 31",potently induces edemas
CC(C)(Sc1ccc(CCN(CCCCC2CCCCC2)C(=O)NC2CCCCC2)cc1)C(=O)O [GW7647],Lethality (NF),[6],32 NF
"C[C@]12CC[C@H](O)CC1=CC[C@@H]1[C@@H]2CC[C@]2(C)C(=O)CC[C@@H]12 [trans-Dehydroandrosterone, 5-Androsten-3beta.ol-17-one]",Onset (NF),"onset of other phenotypic defects, 20 μM, 1% DMSO",41/42
C/C=C(/C)C(=O)O[C@H]1C(C)=C2[C@H]([C@@H]1OC(=O)CCCCCCC)[C@@](C)(OC(C)=O)C[C@H](OC(=O)CCC)[C@@]1(O)[C@H]2OC(=O)[C@@]1(C)O [Thapsigargin],Lethality (NF),[6],32 NF
"O=C(O)c1ccccc1Nc1cccc(OCc2ccc3ccccc3n2)c1 [SR 2640, 2-[[3-(2-Quinolinylmethoxy)phenyl]amino]-benzoic acid]",Lethality (NF),[6],32 NF
Nc1nc2ccc(Cl)cc2c2nc(-c3ccco3)nn12 [CGS -15943],Type of edema Pericordial,embryonic stage,41/42
same,Type of edema Pronephric,embryonic stage,45 embryonic stages according to Nieuwkoop and Faber (NF)
same,Type of edema Ventral,embryonic stage,45 embryonic stages according to Nieuwkoop and Faber (NF)
same,Lethality,in vivo,46 embryonic stages according to Nieuwkoop and Faber (NF)
"CCCCCCCCCCCCCCCCOC[C@H](COCC(F)(F)F)OP(=O)(O)OC.[Li] [MJ33, 1-Hexadecyl-3-(trifluoroethyl)-sn-glycero-2-phosphomethanol lithium]",Lethality (NF),[6],32 NF
CNc1ccc2oc(C[C@H]3O[C@@]4(CC[C@H]3C)O[C@H]([C@H](C)C(=O)c3ccc[nH]3)[C@H](C)C[C@H]4C)nc2c1C(=O)O [Calcimycin],Lethality (NF),[6],32 NF
Ivermectin,Lethality (NF),[4],41/42
"CC(C)Cc1ccc(C(C)C(=O)O)cc1 (racemic) [(±)-Ibuprofen, alpha-Methyl-4-(isobutyl)phenylacetic acid]",Lethality (NF),"Xenopus laevis, in vivo",45 NF
"CC(C)(C)c1ccc(S(=O)(=O)/C=C/C#N)cc1 [Bay 11-7085, (E)-3-(4-t-Butylphenylsulfortyl)-2-propenenitrile]",Lethality (NF),[6],32 NF
O=C(/C=C/c1ccc(O)c(O)c1)OCCc1ccccc1 [Caffeic acid phenethyl ester],Lethality (NF),"compounds causing pigmentation defects, 20 μM, scored to stage 47",39 NF
same,Onset (NF),[5],33/34
"COc1ccc(CCCOC(Cn2ccnc2)c2ccc(OC)cc2)cc1.Cl (stereo not drawn) [SKF 96365, 1-(beta-[3-(4-Methoxyphenyl)propoxy]-4-methoxyphenethyl)-1H-imidazole hydrochloride]",Lethality (NF),[1],41/42
same,Type of edema Pericordial,embryonic stage,39 embryonic stages according to Nieuwkoop and Faber (NF)
same,Type of edema Proctodeal,embryonic stage,40 embryonic stages according to Nieuwkoop and Faber (NF)
same,Lethality,[2],41/42
same,Type of edema Ventral,embryonic stage,40 embryonic stages according to Nieuwkoop and Faber (NF)
C/C(=C\c1ccc(C(=O)O)cc1)c1ccc2c(c1)C(C)(C)CCC2(C)C [TTNPB],Lethality (NF),[1],45 NF
same,Type of edema Proctodeal,embryonic stage,41/42
same,Type of edema Pronephric,embryonic stage,39 embryonic stages according to Nieuwkoop and Faber (NF)
same,Type of edema Cerebral,embryonic stage,41/42+
same,Lethality,[2],45 embryonic stages according to Nieuwkoop and Faber (NF)
same,Type of edema Ventral,embryonic stage,41/42
same,Onset (NF),[3],39 NF
C[C@H]1CCC/C=C/[C@@H]2C[C@H](O)C[C@H]2[C@H](O)/C=C/C(=O)O1 [Brefeldin A],Lethality (NF),[6],33/34

# Reference: patent publication US9945845B2, “Methods of screening using amphibians” (priority 2009, dated 2018)
